{"source": "patent US9000036B2", "about": "“Compositions and methods for targeting of treating neoplasms” (priority 2006, dated 2015)", "key": {"[1]": {"tested_on": "gastric antrum cancer, intrahepatic lump", "settings": "human, in vivo, iv", "experimental": "The lateral lump by the lesser curvature of gastric antrum was administered a intratumoral chemotherapy for 3 times/week for three weeks, the lump at the head of pancreas region was administered intratumoral chemotherapy for 2 times/week fro two weeks, abdominal cavity was perfused for 6 times, in which 5-Fu+DDP 20 mg+IL-2 10^6 u were administered for 2 times, Bruceantin plus Adriamycin were perfused to abdominal cavity for 4 times in three weeks.\nThe intrahepatic lump was administered intratumoral chemotherapy for once. […] ETIFENIN (EHIDA) as target agent in combination with anticancer drugs plus stannous chloride were mixed for a conjugate as a complex, then it was administered intravenous for target therapy and repeated same therapy for 6 times (the formulated medicament mainly comprises: DDP 20 mg for 2 times, 5-Fu 0.5 for 2 times, Ara-C 25 mg for 2 times)."}, "CD4 and CD8 [2]": {"tested_on": "CD4 and CD8", "assay": "Immunological pathological analysis of removed osteosarcoma tumor (CD4, CD8)", "format": "in vivo", "settings": "C57 mice, after three weeks iv treatment", "method": "Osteosarcoma cell line growth in the culture for days to reach 10×10^3, then it is implanted into right arm of mice C57, wait about one week, tumor grow to 1 cm size. We prepared that Methylene Diphosphonate (MDP) 100 mg, Ara-C 50 mg and hapten DNP 0.5 mg were added into the stannous chloride 0.05 mg solution for mixture, incubate 5 minutes and produced a conjugated as complex. For treatment group: iv injection of this conjugated solution in 0.2 ml, two time/week for three weeks, for control group: iv injection of only 0.2 ml Ara-C, two time/week for three weeks. […] Surgical removed tumor for immunological pathological analysis, CD4 and CD8 show positive for MDP-Ara-C-DNP conjugated therapy group, control group show negative of CD4 and CD8."}, "CD4 and CD8 [3]": {"tested_on": "CD4 and CD8", "assay": "Immunological pathological analysis of removed lymphoma tumor (CD4, CD8)", "format": "in vivo", "settings": "C57 mice, after three weeks iv treatment", "method": "(§1) Lymphoma cells line growth in the culture for days to reach about 10×10^3, then it is implanted into the right arm of mice C57, about one week, tumor grow to 1 cm size. We prepared that Bruceantin […], Adymicine 10 mg and hapten DNP 0.5 mg were added into the stannous chloride 0.05 mg solution for mixture incubate 5 minutes and produced a conjugated as complex. For treatment group: iv injection of this conjugated solution in 0.2 ml, two-time/week fro three weeks, for control group: iv injection of only 0.2 ml Ara-C, two-time/week for three weeks."}, "[4]": {"tested_on": "D4 and CD8 antibodies activity", "assay": "CytoxiLux analysis (flow cytometry, FIGS. 1A-B)", "format": "cell-based", "settings": "lymphoma C57 mice", "method": "FIGS. 1A-B show flow cytometry results for CD4 and CD8 immunostaining cells\nas §1"}, "non-Hodgkin lymphoma": {"tested_on": "non-Hodgkin lymphoma", "assay": "Patient case: malignant lymphoma, chemotherapy and intravenous target therapy", "format": "in vivo, human", "settings": "one patient, DDP, Vp-16 and IF0 given together", "method": "From November of 2002 to August of 2003, the radiotherapy at both axillary regions was administered with DT49Gy, the radiotherapy at both neck regions were administered with DT45Gy. […] The hydrops was drawn off by puncture from the right thoracic cavity, cytology reported: a large amount of lymphocytes and mesothelial cells. The patient was admitted to the hospital for further treatment.\nThe B ultrasonotrophy on Feb.\nAfter the intravenous target therapy of Bruceantin, Tetrandrine, thalicarpine, maytansine seperately as target agents in combination with anti-cancer drugs by stannous chloride affection for a conjugate as complex for six courses (all kinds of anti-cancer drugs), the effect was obvious.\nFrom Feb. 27, 2006 to Mar. 24, 2006, the intravenous target chemotherapy of Bruceantin and Tetrandrine separately as target agents in combination with anti-cancer drugs by stannous chloride effective for conjugate as complex was administered for a period of four week. On Mar.\nThe intravenous target chemotherapy of Bruceantin as targeting compound in combination with anti-cancer drugs by stannous chloride function for conjugate as complex was continued for several courses. The CT re-examination in Shandong Medical Imaging Research Institute on Jul.\nDuring the hospitalization, the patient was administered Bruceantin as targeting compound, in combination with the medicaments of 16 times (Arsenic trioxide 5 mg) and 6 times (Ara-C 50 mg), 12 times (cyclophosphamide 0.1), 2 times and VP 16) 50 mg."}}, "data": [{"compound": "ETIFENIN (EHIDA) as target agent in combination with anticancer drugs", "values": [{"measurement": "symptoms after treatment", "setting": "[1]", "value": "abdominal pain, abdominal distention, decreased appetite, accompanied by night sweating and debilitation"}]}, {"compound": "Nc1ccn([C@@H]2O[C@H](CO)[C@@H](O)[C@@H]2O)c(=O)n1", "note": "[Ara-C, Cytidine Arabinosyladenine]", "values": [{"measurement": "CD4 and CD8 in removed tumor", "setting": "CD4 and CD8 [2]", "value": "negative"}, {"measurement": "CD4 and CD8 in removed tumor", "setting": "CD4 and CD8 [3]", "value": "negative"}, {"measurement": "index of D4 and CD8 antibodies activity", "setting": "[4]", "value": 28, "unit": "%"}]}, {"compound": "N.N.[Cl][Pt][Cl]", "note": "[DDP, Cisplatin]", "values": [{"measurement": "bone marrow inhibition after chemotherapy", "setting": "non-Hodgkin lymphoma", "value": "inhibited to the III degree"}]}, {"compound": "O=P1(NCCCl)OCCCN1CCCl", "note": "(stereo not shown) [IF0]", "values": [{"measurement": "bone marrow inhibition after chemotherapy", "setting": "non-Hodgkin lymphoma", "value": "inhibited to the III degree"}]}, {"compound": "COc1cc([C@@H]2c3cc4c(cc3[C@@H](O[C@@H]3O[C@@H]5CO[C@@H](C)O[C@H]5[C@H](O)[C@H]3O)[C@H]3COC(=O)[C@H]23)OCO4)cc(OC)c1O", "note": "[Vp-16]", "values": [{"measurement": "bone marrow inhibition after chemotherapy", "setting": "non-Hodgkin lymphoma", "value": "inhibited to the III degree"}]}]}
